# Measurements as given in PMC5341858, “Molecular regulation of apoptotic machinery and lipid metabolism by mTORC1/mTORC2 dual inhibitors in preclinical models of HER2+/PIK3CAmut breast cancer” (Oncotarget, 2016).
# Key:
# Format in all cases: cell-based
# MDA-MB-231 cells = assay: Glucose-to-lipid conversion (de novo lipid synthesis); conditions: similar treatment, 4 h saturating dose
# Protocol: (§1) Cellular glucose-to-lipid conversion was measured as described. Briefly, cells were pretreated with inhibitors for 2 h, incubated for 2 h in medium containing 2 μCi/mL D-[1-14C] glucose (PerkinElmer, NEC043X001MC). Total lipids were extracted twice with 300 μL hexane:isopropanol (3:2; vol:vol). Cell debris was carefully removed by centrifugation at 14,000 rpm for 5 min using a microcentrifuge. Radioactive lipids were dried, redissolved with 100 μL of chloroform and determined by liquid scintillation counting. A duplicate assay plate without radioactive glucose label was used to count the number of cells per treatment. Glucose to total lipid conversion rate is the radioactive counts from the extracted lipid normalized by the number of cells per hour of ^14C-glucose incubation. For acetyl-CoA assay, cells grown in 96-well plates were washed and lysed in 40 μL/well using lysis buffer. Cell lysates were transferred to V-bottom plates, cleared by centrifugation. 30 μL of the cleared cell lysates were subjected to acetyl-CoA measurement using an acetyl-CoA assay kit (Sigma, MAK-039) following manufacturer's assay manual. Duplicate assay plates were used to count the number of cells per treatment for normalization in determining cellular acetyl-CoA levels.
# MDA-MB-453 cells [1] = assay: as above; conditions: 4 h, saturating dose (5 μM MTI-31, 1 μM rapamycin)
# Protocol: as §1
# MDA-MB-453 cells [2] = assay: Total cellular acetyl-CoA level; conditions: 24 h
# Protocol: as §1
compound,measurement,setting,value
COc1ccc(-c2ccc3c(N4CCOC[C@@H]4C)nc(N4CCOC[C@@H]4C)nc3n2)cc1CO [AZD8055],effect on de novo lipid synthesis,MDA-MB-231 cells,did not significantly reduce lipid synthesis
same,suppression of de novo lipid synthesis (14C-glucose-to-lipid conversion rate),MDA-MB-453 cells [1],63%
CO[C@H]1C[C@@H]2CC[C@@H](C)[C@@](O)(O2)C(=O)C(=O)N2CCCC[C@H]2C(=O)O[C@H]([C@H](C)C[C@@H]2CC[C@@H](O)[C@H](OC)C2)CC(=O)[C@H](C)/C=C(\C)[C@@H](O)[C@@H](OC)C(=O)[C@H](C)C[C@H](C)/C=C/C=C/C=C/1C [rapamycin],effect on de novo lipid synthesis,MDA-MB-231 cells,did not significantly reduce lipid synthesis
same,suppression of de novo lipid synthesis (14C-glucose-to-lipid conversion rate),MDA-MB-453 cells [1],32%
same,reduction in acetyl-CoA,MDA-MB-453 cells [2],45%
